Laboratory results taken from patent US5783449A (priority 1996, dated 1998).

What was measured:
[1] = system: Microsomal Ethanol-Oxidation System (MEOS); settings: human body; stated as well known; cited from earlier work
[2] = in vivo
Protocol: (§1) The BAC readings used in tables 1 and 2 were obtained using breath samples taken with the INTOXIMETER EC/IR 3000 made by Intoximeters, Inc. of St. Louis, Mo. This device has a rated accuracy of ±0.001 (1 mg/dl). The machine was reprogrammed to increase ethanol values by five percent from factory settings to more accurately reflect actual BAC.

clinical = settings: in vivo
Source text: Even though ethanol elimination begins at very outset of consumption, formally the process breaks out from an apex into a pharmacokinetical curve--the break point of a neutralizing reaction against extreme absorption-distribution action.
AUCabs-distr is the absorption-distribution of ethanol and is equal to the AUC under the ascending part of the curve;
AUCpostabs +AUCdistr is a sum of the postabsorption and distribution of ethanol and is equal to the AUC between the ascending and descending part of the plotted curve. Because most pharmacokinetical cases have a triangle-like shape for the curve, it obviously has no value. However, if the value occurs (in a case with a trapezium-like shape for the curve) it disregards from calculation, because proportional representation for this internal rectangular-like composite AUC is the same as the Index-K value;
and AUCelim is the elimination of ethanol and is equal to the AUC under the descending part of the pharmacokinetical curve.
(§2) To verify the results, after ethanol consumption, BAC levels were repeatedly measured by INTOXIMETER EC/IR 3000, until two successive zero BAC measurements were obtained. […] A special electrochemical membrane measured oxidation by transdermal ethanol. The resulting current measured is expressed in micro Amperes (μA) and was automatically multiplied by 35 for TAS#37; by 40 for TAS#34, TAS#39, or by 45 for TAS#33 depending on type of construction for the device.
BAC tests were conducted on 83 volunteer individuals, 48 of whom were non-alcoholic males, 27 of whom were non-alcoholic females and 8 of whom were alcoholic males.
This dose was divided into three equal parts.
as §1

[3] = in vivo; remark: listed apart in the source
Source text: as §2

For CCO [alcohol, ethanol], the “fraction of consumed alcohol destroyed by MEOS” value [1] is listed as “approximately one-fifth”, the blood/breath ratio [2] is listed as 0.994 and the Time to peak (clinical; human, po) is listed as 66 '. The “peak in the BAC” value (clinical; human, po) was 68.2 (s.d.=8.98), the Cmax (clinical; human, po, peak in the BAC) was 697 µg/mL and the “ratio of Index-K between alcoholic and non-alcoholic drinkers” value (clinical) was “about twice”. The “Index-K (range over methods)” value [3] was 1.9-1.97, the “variation in the amplitude of the curves” value [3] was 2.7 fold and the “variation of the elimination time” value [3] was 1.9 fold. The “variation of the time to peak” value [3] was 1.7 fold.
